The test concerns HDAC (HeLa nuclear extract, rich in HDAC activity). Description: HDAC AK-501 colorimetric inhibition kit (Color de Lys substrate, HeLa nuclear extract). The test is classed as biochemical, human. The conditions noted are these: Color de Lys substrate 0.2 mM final, 20 minutes at 37° C., reading at 405 nm, 5 concentrations (0.1-1.0 μM). How it is done: The process of the assay was carried out in two steps. In the first step, the Color de Lys® substrate, containing an acetylated lysine group, was incubated with a sample of HeLa (human cervical cancer cell line) nuclear extract, rich in HDAC activity. […] There is a linear correlation between the absorption and the deacetylation of lysine within instrumental limits. The operating procedure was the following: • 1. […] The Hela extract was added, except to the enzyme-free control. • 3. The plate and the Color de Lys® substrate were thermostatted at 37° C. • 4. The reactions were started adding the 0.4 mM substrate (final concentration of the substrate 0.2 mM) in each well and it was stirred. • 5. A reaction time of 20 minutes at 37° C. was allowed. • 6. The Color de Lys® developer, prepared approximately 30 minutes before its use, was added (the developer was used diluted 20 times with an amount of TSA resulting in a final concentration of 1 μM in the assay). • It was allowed to react for 15 minutes at 37° C. • 7.

`O=C(CCCCCN1C(=O)c2ccc([N+](=O)[O-])cc2C1=O)NO` [MTC-127, 6-(5-nitro-1,3-dioxo-isoindol-2-yl)-N-hydroxyhexanamide] registered an IC50 of 0.35 µM.
With `Cc1ccc2c(c1)C(=O)N(CCCCCC(=O)NO)C2=O` [MTC-141, 6-(5-methyl-1,3-dioxoisoindol-2-yl)-N-hydroxyhexanamide] the figure was 0.18 µM.

These data come from patent publication US20110003878A1, “NOVEL DERIVATIVES OF PHTHALIMIDE AS HISTONE DEACETYLASE INHIBITORS” (UNIVERSIDAD DE GRANADA, priority 2006, published 2011).
